Experimental data reported in PMC9968196, “Synthesis, Characterization, and Biological Evaluation of Meldrum’s Acid Derivatives: Dual Activity and Molecular Docking Study” (Pharmaceuticals, 2023).
Values after ≈ are worked out from the molar mass of the structure shown.

What was measured:
[1] = system: non-small cell lung carcinoma A549; assay: Cytotoxicity, MTT assay; format: cell-based, human; conditions: for IC50: Homo sapiens, A549, 72 h; for selectivity index (SI): A549 cells versus MRC-5
Procedure: (§1) Cell line cells were obtained from the American Type Culture Collection. Human cervical adenocarcinoma HeLa, human chronic myelogenous leukemia K562, non-small cell lung carcinoma A549, human colon carcinoma LS174, pancreatic carcinoma PaCa-2, and normal human lung fibroblast MRC-5 cell lines were grown in RPMI-1640 medium with 10% fetal bovine serum, L-glutamine, and penicillin–streptomycin solution. Cells were plated into the 96-well cell culture plates. Cells were incubated at 37 °C in CO2 incubator. Adherent cell lines were incubated for 20 h before addition of tested compounds. Two hours before addition of compounds, K562 cells were seeded into 96-well plates. The tested compounds were applied at five different concentrations ranging from 10 to 300 µM for 72 h. Thereafter, the survival of cells was determined by MTT assay in accordance with the protocol established by Mosmann and Ohno and Abe. The solution of MTT was added to blank and cell samples. The plates were incubated for 5 h at 37 °C, and then 10% solution of sodium dodecyl sulfate was added to the wells. The absorbance was measured at 570 nm using Thermo Scientific Multiskan EX plate reader. Three independent experiments were performed.

[2] = system: Escherichia coli (ATCC 25922); assay: Antimicrobial activity, broth microdilution MIC with resazurin; format: cell-based; conditions: ATCC25922, E. coli, 37 °C, 24 h, average of three independent experiments
Procedure: (§2) The following strains of bacteria were used as test organisms in this study: Staphylococcus aureus (ATCC 25923), Bacillus subtilis (ATCC 6633), Bacillus cereus (ATCC 10987), and Escherichia coli (ATCC 25922). All the bacteria used were obtained from the American Type Culture Collection (ATCC). Cultures were stored at 4 °C and subcultured every 15 days. The minimal inhibitory concentration (MIC) was determined by the broth microdilution method using 96-well micro-titer plates. A series of dilutions of the tested compounds was used in the experiment against every microorganism. The starting solutions of tested compounds were obtained by measuring off a certain quantity of the compounds and dissolving it in 5% DMSO. The MIC was determined with resazurin. The inoculated plates were incubated at 37 °C for 24 h. Resazurin is an oxidation–reduction indicator used for the evaluation of microbial growth. It is a blue non-fluorescent dye that becomes pink and fluorescent when reduced to resorufin by oxidoreductases within viable cells. The boundary dilution without any changing in color of resazurin was defined as the MIC for the tested microorganism at a given concentration. As a positive control of growth inhibition, streptomycin was used. A 5% DMSO solution was used as a negative control for the influence of the solvents.

[3] = Cytotoxicity, MTT assay, normal cells; format: cell-based, human; conditions: human, MRC-5 normal lung fibroblast cells; MRC-5 normal fibroblast; 72 h
Procedure: as §1

[4] = system: human cervical adenocarcinoma HeLa; assay: Cytotoxicity, MTT assay; format: cell-based; conditions: for IC50: Homo sapiens, HeLa, 72 h; for selectivity index (SI): HeLa cells versus MRC-5
Procedure: as §1

[5] = system: pancreatic carcinoma PaCa-2; assay: Cytotoxicity, MTT assay; format: cell-based; conditions: Homo sapiens, 72 h
Procedure: as §1

[6] = system: human chronic myelogenous leukemia K562; assay: Cytotoxicity, MTT assay; format: cell-based; conditions: 72 h
Procedure: as §1

[7] = system: human colon carcinoma LS174; assay: Cytotoxicity, MTT assay; format: cell-based
Procedure: as §1

[8] = system: Bacillus subtilis (ATCC 6633); assay: Antimicrobial activity, broth microdilution MIC with resazurin; format: cell-based; conditions: ATCC6633, B. subtilis, 37 °C, 24 h, average of three independent experiments
Procedure: as §2

[9] = system: Bacillus cereus (ATCC 10987); assay: as above; format: cell-based; conditions: ATCC10987, B. cereus, 37 °C, 24 h, average of three independent experiments
Procedure: as §2

[10] = system: Staphylococcus aureus (ATCC 25923); assay: as above; format: cell-based; conditions: ATCC25923, S. aureus, 37 °C, 24 h, average of three independent experiments
Procedure: as §2

[11] = system: normal human lung fibroblast MRC-5; assay: Cytotoxicity, MTT assay, normal cells; format: cell-based; conditions: MRC-5
Procedure: as §1

[12] = design: method as in PMID 34019615, PMID 20000793; conditions: cited from earlier work
Gyrase B of E. Coli = system: Gyrase B of E. Coli; design: method as in PMID 31257079; conditions: read-out: inhibitory activity IC50; cited from earlier work

## COc1cc(C=C2C(=O)OC(C)(C)OC2=O)cc([N+](=O)[O-])c1O [3a, 5-(4′-hydroxy-3′-methoxy-5′-nitrobenzylidene)-2,2-dimethyl-1,3-dioxane-4,6-dione]
[1]
  IC50: > 200 µM
[2]
  MIC: 115 µM (≈ 37.3 µg/mL)
[3]
  IC50 at 72 h: > 200 µM
[4]
  IC50: 126 ± 1.45 µM
[5]
  IC50: > 200 µM
[6]
  IC50: 151 ± 3.47 µM
[7]; Homo sapiens, LS174, 72 h
  IC50: > 200 µM

## CCC(=O)Oc1ccc(C=C2C(=O)OC(C)(C)OC2=O)cc1OC [3b, 2′-methoxy-4′-((2,2-dimethyl-4,6-dioxo-1,3-dioxan-5-ylidene)methyl)phenyl propionate]
[1]
  IC50: 41.2 ± 1.74 µM
[8]
  MIC: 175 µM (≈ 58.6 µg/mL)
[2]
  MIC: 89.5 µM (≈ 29.9 µg/mL)
[9]
  MIC: 174 µM (≈ 58.2 µg/mL)
[10]
  MIC: 210 µM (≈ 70.4 µg/mL)
[3]
  IC50 at 72 h: > 200 µM
[4]
  IC50: 102 ± 2.14 µM
[5]
  IC50: 153 ± 4.29 µM
[6]
  IC50: 74.5 ± 1.73 µM
[7]; Homo sapiens, LS174, 72 h
  IC50: 105 ± 4.62 µM

## COc1cc(C=C2C(=O)OC(C)(C)OC2=O)ccc1OC(=O)C1CC1 [3c, 2′-methoxy-4′-((2,2-dimethyl-4,6-dioxo-1,3-dioxan-5-ylidene)methyl)phenyl cyclopropanecarboxylate]
[1]
  IC50: 45.7 ± 1.65 µM
[8]
  MIC: 180 µM (≈ 62.5 µg/mL)
[2]
  MIC: 85.1 µM (≈ 29.5 µg/mL)
[9]
  MIC: 172 µM (≈ 59.4 µg/mL)
[10]
  MIC: 206 µM (≈ 71.3 µg/mL)
[3]
  IC50 at 72 h: > 200 µM
[4]
  IC50: 84.6 ± 1.84 µM
[5]
  IC50: 172 ± 5.25 µM
[6]
  IC50: 70.2 ± 1.68 µM
[7]; Homo sapiens, LS174, 72 h
  IC50: 99.6 ± 1.44 µM

## COc1ccc(C(=O)Oc2ccc(C=C3C(=O)OC(C)(C)OC3=O)cc2OC)cc1 [3d, 2′-methoxy-4′-((2,2-dimethyl-4,6-dioxo-1,3-dioxan-5-ylidene)methyl)phenyl 4-methoxybenzoate]
[1]
  IC50: 36.2 ± 0.39 µM
[8]
  MIC: 169 µM (≈ 69.7 µg/mL)
[2]
  MIC: 74.8 µM (≈ 30.8 µg/mL)
[9]
  MIC: 168 µM (≈ 69.4 µg/mL)
[10]
  MIC: 200 µM (≈ 82.3 µg/mL)
[3]
  IC50 at 72 h: > 200 µM
[4]
  IC50: 94.5 ± 3.15 µM
[5]
  IC50: 145 ± 2.92 µM
[6]
  IC50: 105.1 ± 0.92 µM
[7]; Homo sapiens, LS174, 72 h
  IC50: 118.9 ± 0.95 µM

## COc1cc(C=C2C(=O)OC(C)(C)OC2=O)ccc1OCCOCCOCCO [3e, 5-(4′-(2″-(2′″-(2″″-hydroxyethoxy)ethoxy)ethoxy)-3′-methoxybenzylidene)-2,2-dimethyl-1,3-dioxane-4,6-dione]
[1]
  selectivity index (SI): 2.6
  IC50: 25.9 ± 0.46 µM
[8]
  MIC: 133 µM (≈ 54.6 µg/mL)
[2]
  MIC: 38.1 µM (≈ 15.6 µg/mL)
[9]
  MIC: 80.5 µM (≈ 33 µg/mL)
[10]
  MIC: 145 µM (≈ 59.6 µg/mL)
[3]
  IC50 at 72 h: 111 ± 2.19 µM
[4]
  selectivity index (SI): 4.0
  IC50: 37.3 ± 1.2 µM
[5]
  IC50: 182 ± 3.94 µM
[6]
  IC50: 80.5 ± 2.36 µM
[7]; Homo sapiens, LS174, 72 h
  IC50: 38.1 ± 0.41 µM

## CCCCCCOc1ccc(C=C2C(=O)OC(C)(C)OC2=O)cc1OC [3f, 5-(4′-hexyloxy-3′-methoxybenzylidene)-2,2-dimethyl-1,3-dioxane-4,6-dione]
[1]
  IC50: 39.6 ± 0.74 µM
[8]
  MIC: 48.3 µM (≈ 17.5 µg/mL)
[2]
  MIC: 37.5 µM (≈ 13.6 µg/mL)
[9]
  MIC: 42.3 µM (≈ 15.3 µg/mL)
[10]
  MIC: 73.9 µM (≈ 26.8 µg/mL)
[3]
  IC50 at 72 h: 144 ± 2.84 µM
[4]
  IC50: 63.5 ± 0.45 µM
[5]
  IC50: 110 ± 1.75 µM
[6]
  IC50: 71.9 ± 1.65 µM
[7]; Homo sapiens, LS174, 72 h
  IC50: 45.3 ± 0.58 µM

## CCCCCCCOc1ccc(C=C2C(=O)OC(C)(C)OC2=O)cc1OC [3g, 5-(4′-heptyloxy-3′-methoxybenzylidene)-2,2-dimethyl-1,3-dioxane-4,6-dione]
[1]
  IC50: 35.1 ± 0.27 µM
[8]
  MIC: 45.2 µM (≈ 17 µg/mL)
[2]
  MIC: 36.1 µM (≈ 13.6 µg/mL)
[9]
  MIC: 37.5 µM (≈ 14.1 µg/mL)
[10]
  MIC: 60.4 µM (≈ 22.7 µg/mL)
[3]
  IC50 at 72 h: 139 ± 3.07 µM
[5]
  IC50: 94.2 ± 1.09 µM
[6]
  IC50: 69.5 ± 1.37 µM
[7]; Homo sapiens, LS174, 72 h
  IC50: 47.1 ± 1.69 µM

## CCCCCCCCOc1ccc(C=C2C(=O)OC(C)(C)OC2=O)cc1OC [3h, 5-(3′-methoxy-4′-octyloxybenzylidene)-2,2-dimethyl-1,3-dioxane-4,6-dione]
[1]
  selectivity index (SI): 4.3
  IC50: 27.4 ± 0.78 µM
[8]
  MIC: 31.5 µM (≈ 12.3 µg/mL)
[2]
  MIC: 14.7 µM (≈ 5.74 µg/mL)
[9]
  MIC: 64.8 µM (≈ 25.3 µg/mL)
[10]
  MIC: 54.2 µM (≈ 21.2 µg/mL)
[3]
  IC50 at 72 h: 72.8 ± 0.77 µM
[11]
  toxicity towards MRC-5 cell lines (in words): moderate toxicity
[4]
  selectivity index (SI): 2.9
  IC50: 18.2 ± 0.11 µM
[5]
  IC50: 90.5 ± 0.83 µM
[6]
  IC50: 73.5 ± 1.43 µM
[7]; Homo sapiens, LS174, 72 h
  IC50: 36.5 ± 0.24 µM

## CCCCCCCCCCOc1ccc(C=C2C(=O)OC(C)(C)OC2=O)cc1OC [3i, 5-(4′-decyloxy-3′-methoxybenzylidene)-2,2-dimethyl-1,3-dioxane-4,6-dione]
[1]
  IC50: 21.8 ± 0.91 µM
[8]
  MIC: 29.5 µM (≈ 12.3 µg/mL)
[2]
  MIC: 12.4 µM (≈ 5.19 µg/mL)
[9]
  MIC: 41.5 µM (≈ 17.4 µg/mL)
[10]
  MIC: 50.9 µM (≈ 21.3 µg/mL)
[3]
  IC50 at 72 h: 74.6 ± 1.46 µM
[11]
  toxicity towards MRC-5 cell lines (in words): moderate toxicity
[4]
  selectivity index (SI): 4.8
  IC50: 15.7 ± 0.28 µM
[5]
  IC50: 58.2 ± 0.74 µM
[6]
  IC50: 63.7 ± 2.49 µM
[7]; 72 h
  IC50: 30.5 ± 0.35 µM
[7]; Homo sapiens, LS174, 72 h
  IC50: 20.8 µM

## CC1(C)OC(=O)CC(=O)O1 [Meldrum’s acid]
[12]
  pKa: 4.9

## CCNC(=O)Nc1cc(-n2cc(Br)cn2)c(C(=O)Nc2cccnc2)cn1 [P3C, 4-(4-bromo-1H-pyrazol-1-yl)-6-[(ethylcarbamoyl)amino]-N-(pyridine-3-yl)pyridine-3-carboxamide]
Gyrase B of E. Coli
  IC50: 0.037 µM

## [H]/N=C(/N)N[C@H]1[C@H](O)[C@@H](O)[C@H](O[C@@H]2O[C@@H](C)[C@](O)(C=O)[C@H]2O[C@@H]2O[C@@H](CO)[C@H](O)[C@@H](O)[C@@H]2NC)[C@@H](N/C(N)=N\[H])[C@@H]1O [streptomycin, reference compound]
[8]
  MIC: 0.003 µM (≈ 0.00174 µg/mL)
[2]
  MIC: 0.01 µM (≈ 0.00582 µg/mL)
[9]
  MIC: 0.003 µM (≈ 0.00174 µg/mL)
[10]
  MIC: 0.005 µM (≈ 0.00291 µg/mL)
